Data published in US20250084079A1, “COMPOSITIONS AND METHODS FOR INHIBITION OF RAS” (TheRas, Inc., priority 2022, published 2025).
Each block holds one compound with its values, some of them ahead of it.

Key:
[1] = target: T1, Avi-KRAS WT (1-169) GppNHp/RAF1 RBD-3xFLAG (52-151) (Homo sapiens, UniProt P01116); test: RAS-effector PPI HTRF disruption assay, Raf1-GppNHp-KRAS WT; assay type: biochemical
T1 construct: 50 nM Avi-KRAS WT (1-169) GppNHp
How it was run: (§1)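 Compounds (10-point, 3× dilution from 100 μM) were incubated with GppNHp-loaded KRAS–effector complex for 1 h at room temperature with shaking, followed by detection reagents for another 1 h. Complex levels: 375 nM for G12D/Q25A–PI3KCA, 100 nM for G12D–RAF1, 50 nM for G12V and WT–RAF1.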

[2] = target: T2, Avi-KRAS G12D (1-169) GppNHp/RAF1 RBD-3xFLAG (52-151) (Homo sapiens, UniProt P01116, G12D); test: RAS-effector PPI HTRF disruption assay, Raf1-GppNHp-KRAS G12D; assay type: biochemical
T2 construct: 100 nM Avi-KRAS G12D (1-169) GppNHp
How it was run: as §1

[3] = target: T3, Avi-KRAS G12V (1-169) GppNHp/RAF1 RBD-3xFLAG (52-151) (Homo sapiens, UniProt P01116, G12V); test: RAS-effector PPI HTRF disruption assay, Raf1-GppNHp-KRAS G12V; assay type: biochemical
T3 construct: 50 nM Avi-KRAS G12V (1-169) GppNHp
How it was run: as §1

[4] = test system: pERK in GP2d cells (KRAS G12D); test: Cell-based pERK HTRF assay in GP2d cell; settings: GP2d, 1 h, 60 min incubation
How it was run: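 Phospho-ERK was measured by HTRF in lysates of KRAS G12D GP2d cells after 60 min of compound exposure. Nine concentrations were tested, half-log apart from a 1 μM top, with 0.25% DMSO throughout. Cells had been plated the previous day in DMEM with 10% FBS, and the detection antibodies were incubated 4–24 h at room temperature before reading.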

[5] = target: T4, Avi-KRAS G12D/Q25A (1-169) GppNHp/3xFLAG-PI3KCA (157-299) (Homo sapiens, UniProt P01116, G12D/Q25A); test: RAS-effector PPI HTRF disruption assay, PI3KCA-GppNHp-KRAS G12D/Q25A; assay type: biochemical
T4 construct: 375 nM Avi-KRAS G12D/Q25A (1-169) GppNHp
How it was run: as §1

GDP KRAS G12D = GDP KRAS G12D (Homo sapiens, UniProt P01116, G12D); test: SPR binding affinity to GDP KRAS G12D (Biacore S200); settings: GDP-loaded KRAS G12D, steady state KD
Procedure: (§2) The affinity of compounds of the present disclosure to RAS ligands was assessed using surface plasmon resonance (SPR) binding analysis using a Biacore S200 (GE Healthcare Life Sciences) instrument. The SPR binding analysis employed the following reagents and protocols:
(§3) Buffer preparation: To make 0.5 L add required amounts of stocks for: 20 mM Hepes, 150 mM NaCl, 5 mM MgCl2, 1 mM TCEP, 0.05% P20, and 5 μM nucleotide. Adjust pH to 7.4, then bring volume up to 475 mL 1.05×Filter through 0.2 μm cellulose acetate membrane. Remove a volume of buffer as No DMSO Buffer 1.05× and set aside. Add appropriate volume of DMSO to buffer to a final concentration 5% DMSO.
(§4) Chip preparation: Prime 2× with 5% DMSO buffer. Allow system to flow on standby throughout the day.
(§5) Sample preparation: Make a 20× compound solution in 100% DMSO of highest compound concentration to be screened (2 mM for final 100 μM compound). Add appropriate volume of 1.05× buffer without DMSO to give 5% DMSO and mix by pipetting. Centrifuge sample 18,000×g 5 min 25° C. Make appropriate serial dilutions from the highest concentration into 5% DMSO running buffer for the concentrations needed. Prepare 5.8% DMSO and 4.5% DMSO solvent correction solutions using buffer without DMSO. Make two more solvent corrections by mixing 200 μL 4.5% 500 μL 5.8%, and 400 μL 4.5% 300 μL 5.8%
(§6) Capture Avi-taggedprotein: Thaw protein stock on ice, aliquot into single use size and freeze at −80° C. for future use. Dilute protein (avi-KRAS WT, avi-KRAS-G12D, avi-KRAS-G12V, or avi-RhoA) appropriately, to 20 μg/mL to begin in 5% DMSO buffer. Manually inject at 10 μL/min 12 second contact time. Adjust flow and or contact time to achieve desired level of captured protein. When desired level of protein is captured, flow for 10 minutes to stabilize signal.
(§7) General Binding Level Screen Method: Choose LMW screen template in Fragment/LMW subfolder in Binding screen folder. 30 μL/min high performance injection, 60 sec contact and dissociation time, carry over control, extra wash with 50% DMSO for each injection. Fifteen Startup cycles to condition. Control samples before and after compound samples. For GppNHp loaded KRAS, control is 20 μM Raf1 RBD domain. Adjust this sample to final 5% DMSO to match running buffer. This process is performed at a temperature of 25° C. using a single chip per experiment.
(§8) Binding affinity determination: Compounds selected from the binding level screen are evaluated in a dose response to determine the binding affinity (KD). Serial dilutions of compounds are prepared and injected over the sensor chip using a flow rate of 30 μL/min with a 60 second contact and dissociation time. After double referencing of the sensorgrams the total level of compound binding at each concentration is calculated. The steady state binding affinity is calculated with a Langmuir binding model assuming a 1:1 interaction with a constrained Rmax using the BIAevaluation software.

GppNHp KRAS G12D = GppNHp KRAS G12D (Homo sapiens, UniProt P01116, G12D); test: SPR binding affinity to GppNHp KRAS G12D (Biacore S200); settings: GppNHp-loaded KRAS G12D, steady state KD
Procedure: as §2, §3, §4, §5, §6, §7, §8

T1 sequence (P01116 1-169 isoform P01116-2): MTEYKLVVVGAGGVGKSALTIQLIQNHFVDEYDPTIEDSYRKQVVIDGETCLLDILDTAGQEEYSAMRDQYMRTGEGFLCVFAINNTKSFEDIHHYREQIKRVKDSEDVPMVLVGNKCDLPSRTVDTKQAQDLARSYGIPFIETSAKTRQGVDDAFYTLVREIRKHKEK
T3 sequence (P01116 1-169 isoform P01116-2 G12V): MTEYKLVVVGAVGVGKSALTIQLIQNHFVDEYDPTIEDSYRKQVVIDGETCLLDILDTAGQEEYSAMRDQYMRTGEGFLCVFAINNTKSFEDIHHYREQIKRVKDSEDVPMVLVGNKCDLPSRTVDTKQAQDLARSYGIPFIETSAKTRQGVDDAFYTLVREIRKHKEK
GDP KRAS G12D, sequence (P01116 1-188 isoform P01116-2 G12D): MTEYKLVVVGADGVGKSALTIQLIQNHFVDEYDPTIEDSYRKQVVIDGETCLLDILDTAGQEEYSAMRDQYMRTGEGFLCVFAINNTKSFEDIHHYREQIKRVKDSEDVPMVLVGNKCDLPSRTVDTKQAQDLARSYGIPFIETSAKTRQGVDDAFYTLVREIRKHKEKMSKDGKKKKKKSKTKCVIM
GppNHp KRAS G12D, sequence (P01116 1-188 isoform P01116-2 G12D): as above
T2 sequence (P01116 1-169 isoform P01116-2 G12D): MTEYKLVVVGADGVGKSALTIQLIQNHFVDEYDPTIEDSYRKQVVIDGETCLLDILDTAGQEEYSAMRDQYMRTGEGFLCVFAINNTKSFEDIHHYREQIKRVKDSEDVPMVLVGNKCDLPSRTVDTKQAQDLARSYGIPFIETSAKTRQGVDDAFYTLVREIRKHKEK
T4 sequence (P01116 1-169 isoform P01116-2 G12D/Q25A): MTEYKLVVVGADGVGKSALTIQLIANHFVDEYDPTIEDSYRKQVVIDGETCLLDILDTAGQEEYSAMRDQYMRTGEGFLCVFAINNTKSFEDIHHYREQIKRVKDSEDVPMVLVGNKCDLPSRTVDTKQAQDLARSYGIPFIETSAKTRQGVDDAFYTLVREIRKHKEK

SMILES: Nc1nc2c(-c3c(C(F)(F)F)cc4c(OC5CC6CC[C@H](C5)N6)nc(OCC56CCCN5CCC6)nc4c3F)ccc(F)c2s1 (stereo partly shown) [Compound 26]
IC50 [1]: ≤ 100 nM | IC50 [2]: ≤ 100 nM | IC50 [3]: 1000 to 10000 nM | IC50 [4]: > 1000 nM | IC50 [5]: 100 to 1000 nM | Kd (GDP KRAS G12D): ≤ 100 nM | Kd (GppNHp KRAS G12D): ≤ 100 nM

SMILES: C[C@H]1C[C@@H](Oc2nc(OC[C@@]34CCCN3C[C@H](F)C4)nc3c(F)c(-c4ccc(F)c5sc(N)nc45)c(C(F)(F)F)cc23)CN1 [Compound 7]
IC50 [1]: 1000 to 10000 nM | IC50 [2]: 100 to 1000 nM | IC50 [3]: > 10000 nM | IC50 [4]: ≤ 100 nM | IC50 [5]: 1000 to 10000 nM | Kd (GppNHp KRAS G12D): 1000 to 10000 nM

SMILES: Nc1nc2c(-c3c(C(F)(F)F)cc4c(O[C@H]5CNC[C@@H]5F)nc(OC[C@@]56CCCN5C[C@H](F)C6)nc4c3F)ccc(F)c2s1 (atropisomer, axis not shown) [Compound 18]
IC50 [1]: > 10000 nM | IC50 [2]: > 10000 nM | IC50 [3]: > 10000 nM | IC50 [5]: > 10000 nM | Kd (GDP KRAS G12D): 100 to 1000 nM | Kd (GppNHp KRAS G12D): > 10000 nM

SMILES: C[C@H]1NCCC1Oc1nc(OC[C@@]23CCCN2C[C@H](F)C3)nc2c(F)c(-c3ccc(F)c4sc(N)nc34)c(C(F)(F)F)cc12 (stereo partly shown) [Compound 19]
IC50 [1]: 100 to 1000 nM | IC50 [2]: 100 to 1000 nM | IC50 [3]: 1000 to 10000 nM | IC50 [4]: ≤ 100 nM | IC50 [5]: 100 to 1000 nM | Kd (GDP KRAS G12D): ≤ 100 nM | Kd (GppNHp KRAS G12D): 100 to 1000 nM

Second part, the compound after the results:

IC50 [1]: 1000 to 10000 nM | IC50 [2]: 100 to 1000 nM | IC50 [3]: 1000 to 10000 nM | IC50 [4]: 100 to 1000 nM | IC50 [5]: 100 to 1000 nM | Kd (GDP KRAS G12D): ≤ 100 nM | Kd (GppNHp KRAS G12D): 100 to 1000 nM
SMILES: Nc1nc2c(-c3c(C(F)(F)F)cc4c(O[C@H]5CNC[C@@H]5F)nc(OC[C@@]56CCCN5C[C@H](F)C6)nc4c3F)ccc(F)c2s1 (atropisomer, axis not shown) [Compound 17]

IC50 [1]: 1000 to 10000 nM | IC50 [2]: 100 to 1000 nM | IC50 [3]: 1000 to 10000 nM | IC50 [4]: ≤ 100 nM | IC50 [5]: 1000 to 10000 nM | Kd (GDP KRAS G12D): ≤ 100 nM | Kd (GppNHp KRAS G12D): 100 to 1000 nM
SMILES: C[C@@H]1C[C@@H](Oc2nc(OC[C@@]34CCCN3C[C@H](F)C4)nc3c(F)c(-c4ccc(F)c5sc(N)nc45)c(C(F)(F)F)cc23)CN1 (atropisomer, axis not shown) [Compound 20]

IC50 [1]: > 10000 nM | IC50 [2]: > 10000 nM | IC50 [3]: > 10000 nM | IC50 [5]: > 10000 nM | Kd (GDP KRAS G12D): 1000 to 10000 nM | Kd (GppNHp KRAS G12D): > 10000 nM
SMILES: C[C@@H]1C[C@@H](Oc2nc(OC[C@@]34CCCN3C[C@H](F)C4)nc3c(F)c(-c4ccc(F)c5sc(N)nc45)c(C(F)(F)F)cc23)CN1 (atropisomer, axis not shown) [Compound 21]
